11 compounds from ChEMBL document CHEMBL4680203, “Cladosins L-O, new hybrid polyketides from the endophytic fungus Cladosporium sphaerospermum WBS017” (Eur J Med Chem, 2020) can be followed below.

Assay [1] deals with Acinetobacter baumannii. The experiment in a line: […] activity against Acinetobacter baumannii BAA1605 assessed as reduction in microbial growth by CLSI based broth microdilution method. The format is functional. In general terms: In broth dilution the organism is exposed to a series of concentrations in liquid medium.
The subject of assay [2] is L5178Y. The experiment in a line: Cytotoxicity against mouse L5178Y cells assessed as cell viability at 10 ug/ml after 24 hrs by MTT assay relative to control. The format is functional. The settings on record: read-out: Activity. Background: Tetrazolium assays rely on reduction of a dye to a coloured formazan, in cell work by metabolically active cells.
Assay [3] has as its system Enterococcus faecalis. The experiment in a line: […] activity against Enterococcus faecalis ATCC 29212 assessed as reduction in microbial growth by CLSI based broth microdilution method. The assay is classed as functional.
Assay [4] concerns Mycobacterium tuberculosis. In words: Antitubercular activity against Mycobacterium tuberculosis H37Rv assessed as reduction in microbial growth by CLSI based broth microdilution method. The format is functional.
In assay [5] the test system is Pseudomonas aeruginosa. In words: Antibacterial activity against Pseudomonas aeruginosa 27853 assessed as reduction in microbial growth by CLSI based broth microdilution method. The assay is classed as functional.
The test system of assay [6] is Staphylococcus aureus. The experiment in a line: Antibacterial activity against Staphylococcus aureus ATCC 29213 assessed as reduction in microbial growth by CLSI based broth microdilution method. The format is functional.
Assay [7] concerns Staphylococcus aureus. In words: Antibacterial activity against Staphylococcus aureus ATCC 700699 assessed as reduction in microbial growth by CLSI based broth microdilution method. The assay is classed as functional.
In assay [8] the test system is L5178Y. The experiment in a line: Cytotoxicity against mouse L5178Y cells assessed as reduction in cell viability after 24 hrs by MTT assay. The assay is classed as functional, cell-based.
Assay [9] has as its system Ustilago maydis. The experiment in a line: Antifungal activity against Ustilago maydis AB33 assessed as diameter of zone inhibition at 100 ug by Kirby-Bauer disk diffusion method. The assay is classed as functional. As to conditions: Mycosarcoma maydis. Background: In agar diffusion tests the substance spreads into inoculated agar from a disc or well.
Assay [10] relates to Ustilago maydis. The experiment in a line: Antifungal activity against Ustilago maydis AB33 assessed as diameter of zone inhibition at 50 ug by Kirby-Bauer disk diffusion method. The format is functional. As to conditions: Mycosarcoma maydis, read-out: DIZ.
The subject of assay [11] is Saccharomyces cerevisiae. The experiment in a line: Antifungal activity against Saccharomyces cerevisiae ESM356-1 assessed as diameter of zone inhibition at 50 ug by Kirby-Bauer disk diffusion method. The assay is classed as functional. As to conditions: read-out: DIZ.
The test system of assay [12] is Saccharomyces cerevisiae. In words: Antifungal activity against Saccharomyces cerevisiae ESM356-1 assessed as diameter of zone inhibition at 100 ug by Kirby-Bauer disk diffusion method. The format is functional, organism-based. As to conditions: dose 100.0 µg.

The term MIC denotes the lowest concentration that inhibits growth of the organism. As for `CC(C)=C1NC(=O)C(=Cc2ccc(O)cc2)C1=O` (mixture of isomers), the minimal inhibitory concentration (MIC) in assay [1] is more than 100 µM; in assay [3], more than 100 µM; in [4], more than 100 µM; in assay [5], more than 100 µM; in assay [6] it was 50 µM; in assay [7] it was 25 µM. Moreover, the viability at 10 µg/mL in assay [2] worked out at 18.2%.
`CC(C)=C1NC(=O)C2=C1O[C@@H](C[C@H](C)O)CC2=O`: the MIC in assay [1], in assay [4], in assay [5] and in [6] was more than 100 µM in each case.
As usually defined, the EC50 is the midpoint of the concentration-response curve. With `C/C=C1\NC(=O)[C@H](Cc2ccccc2)NC(=O)[C@H](C(C)C)NC(=O)[C@@H]([C@@H](C)CC)NC(=O)[C@@H](NC(=O)[C@H](NC(=O)[C@H](CCCN)NC(=O)[C@H]2CCCN2C(=O)[C@@H](NC(=O)C(NC(=O)[C@@H](NC(=O)[C@@H](NC(=O)CCCC(C)C)C(C)C)[C@@H](C)O)C(C)C)C(C)C)[C@@H](C)CC)[C@@H](C)OC(=O)[C@H](C(C)C)NC1=O` (some centres undefined), the viability at 10 µg/mL in assay [2] worked out at 0%. In addition, in [8], the concentration giving a half-maximal response (EC50) amounted to 4.3 µM.
Regarding `CC(C)=C1NC(=O)C2=C1O[C@H](C[C@H](C)O)CC2=O`, the minimal inhibitory concentration (MIC) in [1], in assay [4], in [5] and in assay [6] was more than 100 µM each time. Moreover, the viability at 10 µg/mL in assay [2] was 100%.
As for `CC(C)=C1NC(=O)C(=C(N)CCCC(C)O)C1=O` (mixture of isomers), the minimum inhibitory concentration (MIC) was more than 100 µM in [1], 100 µM in [4], more than 100 µM in [5] and more than 100 µM in [6]. Further, in assay [2], the viability at 10 µg/mL came out at 50.9%.
Regarding `CC(C)=C1NC(=O)C(=C2C=CCC(C)O2)C1=O` (centres undefined), the MIC in assay [1], in assay [4], in [5] and in assay [6] was more than 100 µM throughout. Further, the viability at 10 µg/mL in [2] turned out to be 0%. For the same compound, in assay [9] (read-out: DIZ), the zone of inhibition at 100 µg/disc turned out to be 9.7 mm. Besides, the half-maximal effective concentration (EC50) in [8] was 3.7 µM.
Regarding `CN[C@H]1C[C@@H](N)[C@H](O)[C@@H](O[C@@H]2O[C@H](CO)[C@H](O)[C@@H]3O[C@@]4(O[C@H]23)O[C@H]([C@H](N)CO)[C@H](O)[C@H](O)[C@H]4O)[C@@H]1O`, the figures for the zone of inhibition at 50 µg/disc in [10] and in assay [11] were 8.3 mm and 8.7 mm, respectively.
Turning to NYSTATIN, the inhibition zone (IZ) in assay [9] (dose 100.0 µg) stood at 32.7 mm; in [12], 7.8 mm.
For the compound `CC(C)=C1NC(=O)C(=C(N)CC(O)C[C@@H](C)O)C1=O` (some centres undefined), the minimum inhibitory concentration (MIC) is more than 100 µM in [1], 100 µM in assay [4], more than 100 µM in assay [5] and more than 100 µM in assay [6]. Moreover, the viability at 10 µg/mL in [2] is 82.2%.
With `CC(C)=C1NC(=O)C(=C(N)/C=C/CC(C)O)C1=O` (centres undefined), the MIC in [1] is more than 100 µM; in assay [4], 100 µM; in assay [5], more than 100 µM; in assay [6], more than 100 µM. In assay [2], the viability at 10 µg/mL was determined as 32.8%.
As for `CC(C)=C1NC(=O)C(=C(N)CC(O)C[C@H](C)O)C1=O` (some centres undefined), the MIC was more than 100 µM in assay [1], 100 µM in assay [4], more than 100 µM in assay [5] and more than 100 µM in assay [6]. Besides, in assay [2], the viability at 10 µg/mL amounted to 53.1%.
